Test results taken from patent publication US6355785B1, “Guanosine-rich oligonucleotide integrase inhibitors” (Aronex Pharmaceuticals, Inc., priority 1993, dated 2002).
Marks after values point to notes of the source that are not given here.

How the values were obtained:
HIV-1DV = assay: Analysis of HIV-1 RNA and DNA in single cycle assays, SUP T1; format: cell-based
[1] = human, up to 236 ug/mL
MT2 = format: cell-based, human
Procedure: (§1) Cytotoxicity Analysis. The cytotoxicity of T30177 was assayed as described above. […] The degree of cell proliferation was determined according to the manufacturer's instructions.
(§2) Cytotoxicity Assays. The cytotoxicity of T30177 was determined using several different cell lines and primary human cells as described above. The cytotoxicity profile obtained for log phase growing cells was variable depending upon the cell line used, while the slower growing PBMCs, PBLs, and macrophages all tolerated the compound at concentrations exceeding 100 μM as monitored using the trypan blue exclusion, [^3H]thymidine uptake, or [^3H]leucine uptake techniques.

MT4 = format: cell-based, human
Procedure: as §1, §2

AA5 = format: cell-based, human
Procedure: as §1, §2

CEMx174 = format: cell-based, human
Procedure: as §1, §2

U937 = format: cell-based, human
Procedure: as §1, §2

CEM-SS = format: cell-based, human
Procedure: as §1, §2

HIV-1SKI = assay: Single cycle analysis of HIV-1 cDNA, CEM-SS cells; format: cell-based; details: 10- to 100-fold over IC50
[2] = target: T1, HIV-1 integrase deletion mutant IN1-212 (Human immunodeficiency virus type 1 group M subtype B, UniProt P12497); assay: Disintegration assay, IN1-212; format: biochemical
T1 construct: purchased gift of Drs; T. Jenkins and R. Craigie, NIDDK, NIH (not bought)

[3] = Thermal denaturation of oligomer fold (UV, Tm); format: physicochemical
[4] = set-up: species or system cynomolgus monkeys; details: cynomolgus monkey, in vivo
Procedure: AR177 plasma HPLC analysis. Blood was taken for plasma analysis of AR177 just prior to, and at 5, 30 and 240 minutes following administration of doses 1 and 12. The plasma fraction was obtained by low speed centrifugation of blood, and stored at −20° C. until analyzed for the AR177 concentration. Plasma AR177 concentrations were assayed using an anion-exchange HPLC method on a Waters HPLC system with a 626 pump, 996 photodiode array detector, 717 autosampler and Millennium system software controlled by an NEC Image 466 computer. Buffer A was 0.1 M Tris base, 20% methanol, pH 12, and Buffer B was 0.1 M Tris base, 1.0 M NaBr, pH12. anion-exchange column tGen-Pak Fax column) was equilibrated at 80% buffer A/20% buffer B for 30 minutes before each HPLC run. Fifty microliters of plasma were analyzed per run. The elusion conditions were: a) five-minute isocratic run at 80% A/20% B, during which the majority of the plasma proteins eluted, b) 30-minute linear gradient to 30% A/70% B during which the AR177 eluted, c) five-minute isocratic run at 30% A/70% B. d) one minute linear gradient to 100% B. e) two- minute run at 100% B for initial column cleanup, and fl two-minute linear gradient to 70% A/30% B for the initial step in the clean-up method for HPLC column clean-up. […]

Cc1cn([C@H]2C[C@H](N=[N+]=[N-])[C@@H](CO)O2)c(=O)[nH]c1=O [AZT, 3′-azido-3′-deoxythymidine]
viral DNA synthesis (PCR) (HIV-1DV; 36 hr post-infection): marked decrease in viral DNA synthesis
HIV-1 specific transcript (RT-PCR) (HIV-1DV; drug added at zero hours): viral mRNA was still being produced

5′-gtggtgggtgggtgggt-3′ [T30177] (GTGGTGGGTGGGTGGGT; phosphorothioate termini, further chemistry not given here)
complement CH50 [1]: no effect

5′-gtggtgggtgggtgggt-3′ (GTGGTGGGTGGGTGGGT; phosphorothioate termini, further chemistry not given here) [T30177, pPT version of parent compound I100-15, 17 mer]
CC50 (MT2): 61.2 ± 5.5 µM
TC25 (MT2): 27 ± 3.5 µM
TC95 (MT2): >100 µM
CC50 (MT4): 70 ± 7.1 µM
TC25 (MT4): 34 ± 4.0 µM
TC95 (MT4): >100 µM
CC50 (AA5): 94.2 ± 3.1 µM
TC25 (AA5): 45.66 ± 2.0 µM
TC95 (AA5): >100 µM
CC50 (CEMx174): 50 ± 5.2 µM
TC25 (CEMx174): 10 ± 2.5 µM
TC95 (CEMx174): >100 µM
CC50 (U937): > 100 µM
TC25 (U937): >100 µM
TC95 (U937): >100 µM
CC50 (CEM-SS): 92 ± 3 µM
TC25 (CEM-SS): 50.8 ± 3.2 µM
TC95 (CEM-SS): >100 µM
viral cDNA 12 hours post-infection, drug added at time of infection (HIV-1SKI): viral cDNA was detected
IC50 [2]: 0.6 µM
Tm ([3]; 1 mM KCl): 53 °C
Tm ([3]; 10 mM KCl, calculated from linear fit): 70* ° C.
Tm ([3]; 180 mM KCl, calculated from linear fit): 92* ° C.
IC50 virus-induced cytopathogenicity (Junin virus; Junin virus): >50 µg/mL
MCC minimum concentration altering normal cell morphology (Junin virus; Junin virus assay): >50 μg/mL
IC50 virus-induced cytopathogenicity (Yellow Fever virus; Yellow Fever virus): >200 µg/mL
MCC minimum concentration altering normal cell morphology (Yellow Fever virus; Yellow Fever virus assay): >200 μg/mL
IC50 virus-induced cytopathogenicity (HSV-2 (G); HSV-2 (G)): >200 µg/mL
MCC minimum concentration altering normal cell morphology (HSV-2 (G); HSV-2 (G) assay): 400 μg/mL
metabolites (n−1, n−2) in plasma [4]: No metabolites
